Source: patent US20030055065A1, “Tricyclic amide and urea compounds useful for inhibition of G-protein function and for treatment of proliferative diseases” (priority 1993, published 2003)
Where “and” joins values, the source holds several entries; their conditions need not be identical. Identical values can stand only once. Like-named read-outs stand apart in the source and are kept apart here.

How the values were obtained:
[1] = system: Ras-CVLS processing in COS monkey kidney cells; test: COS cell assay: Ras-CVLS processing (Western blot); assay type: cell-based; conditions: Primates, COS, COS cells; read-out: Inhibition of Ras Processing IC50
Experimental: 2. […] Effect of farnesyl protein transferase inhibitors on Ras processing and on disordered cell growth induced by transforming Ras. COS monkey kidney cells were transfected by electroporation with the plasmid pSV-SPORT (Gibco/BRL) containing a cDNA insert encoding either Ras-CVLS or Ras-CVLL, leading to transient overexpression of a Ras substrate for either farnesyl protein transferase or geranylgeranyl protein transferase I, respectively (see above). […] After 24 hours, media was removed and fresh media containing the appropriate drugs was re-added. 48 hours after electroporation cells were examined under the microscope to monitor disordered cell growth induced by transforming Ras. Cells expressing transforming Ras become more rounded and refractile and overgrow the monolayer, reminiscent of the transformed phenotype. […] Cells were lysed by homogenization and cell debris was removed by centrifugation at 2000×g for 10 min. Cellular protein was precipitated by addition of ice-cold trichloroacetic acid and redissolved in 100 μl of SDS-electrophoresis sample buffer. […] Proteins resolved on the gels were electroblotted onto nitrocellulose membranes for immunodetection. […] E., et al., (1982), Monoclonal antibodies to the p21 products of the transforming gene of Harvey murine sarcome virus and of the cellular ras gene family, J. Virol. 43: 294-304), in PBS containing 1% fetal calf serum for one hour at room temperature. After washing, membranes were incubated for one hour at room temperature with a 1:5000 dilution of secondary antibody, rabbit anti-rat IgG conjugated to horseradish peroxidase, in PBS containing 1% fetal calf serum.

[2] = target: T1, farnesyl protein transferase (FPT), partially purified from rat brain (Rattus norvegicus, UniProt Q02293+Q04631); test: Inhibition of farnesyl protein transferase (transfer of [3H]farnesyl to Ras-CVLS); assay type: biochemical
T1 construct: were partially purified from rat brain by ammonium sulfate fractionation followed by Q-Sepharose
T1 sequence (Q02293 whole entry, one chain of several): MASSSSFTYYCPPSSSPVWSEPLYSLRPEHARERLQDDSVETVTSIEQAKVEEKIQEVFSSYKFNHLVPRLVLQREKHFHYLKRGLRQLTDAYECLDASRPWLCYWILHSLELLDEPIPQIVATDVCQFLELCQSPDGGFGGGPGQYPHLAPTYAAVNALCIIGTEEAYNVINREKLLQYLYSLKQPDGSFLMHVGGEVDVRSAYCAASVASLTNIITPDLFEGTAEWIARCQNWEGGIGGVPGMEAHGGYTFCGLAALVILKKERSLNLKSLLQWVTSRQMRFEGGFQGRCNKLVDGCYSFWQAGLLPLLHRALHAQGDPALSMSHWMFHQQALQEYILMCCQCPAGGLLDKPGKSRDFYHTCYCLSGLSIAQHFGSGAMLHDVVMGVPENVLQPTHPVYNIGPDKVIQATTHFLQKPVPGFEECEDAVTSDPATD
Method in brief: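 Transfer of [3H]farnesyl onto E. coli-expressed, His6-tagged Ras-CVLS was measured after 30 min at room temperature. Radiolabelled Ras was TCA-precipitated on ice and filter-harvested, and inhibition was expressed as percent of DMSO control.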

[3] = system: T24-BAG4 human bladder carcinoma cells expressing an activated H-ras gene; test: Cell Mat Assay: tumor cell colony inhibition (tIC50); assay type: cell-based; conditions: inhibition of tumor cell growth
Experimental: (§1) Compound-induced colony inhibition was assayed by addition of serial dilutions of compound directly to the growth medium 24 h after tumor cell planting, and incubating cells for an additional 14 d to allow colony formation. Assays were terminated by rinsing monolayers twice with phosphate-buffered saline (PBS), fixing the monolayers with a 1% glutaraldehyde solution in PBS, then visualizing tumor cells by staining with X-Gal (Price, J., et al., Lineage analysis in the vertebrate nervous system by retrovirus-mediated gene transfer, Proc. Natl. Acad. Sci.84, 156-160(1987)). […] Both IC50 values were obtained by determining the density of tumor cells and mat cells by visual inspection and enumeration of cells per colony and the number of colonies under the microscope.

[4] = system: Normal human HEPM fibroblasts; test: Cell Mat Assay: density of mat cells (mIC50); assay type: cell-based
Experimental: as §1

[5] = Ras-CVLS farnesylation, partially purified rat brain FPT, read-out: FPT IC50
[6] = FPT IC50, Ras-CVLS farnesylation, partially purified rat brain FPT
[7] = enzyme inhibition, read-out: FPT IC50

IC50 [2, 5] | IC50 ([3]; Homo sapiens) [µM] | Structure (SMILES) | IC50 ([4]; Homo sapiens, Fibroblast) [µM] | also measured
– | – | O=C(Cc1cccnc1)N1CCN(C2c3ccc(Cl)cc3CCc3cccnc32)CC1 (centres unmarked) [Example 78] | – | IC50 [1]: < 4.6 µM; IC50 [2, 6]: 1 µM and 0.42 µM; IC50 ([2]; FPT IC50, enzyme inhibition): 2.19 µM and 0.53 µM and 0.74 µM and 0.76 µM and 0.97 µM
0.59 µM | – | CS(=O)(=O)OCC(C(=O)N1CCC(=C2c3ccc(Cl)cc3CCc3cccnc32)CC1)c1ccccc1 (centres unmarked) [Example 83, 8-chloro-11-[1-(2-methanesulfonyl-oxy-1-phenylethylcarbonyl)-4-piperidylidene]-6,11-dihydro-5H-benzo-[5,6]cyclohepta-[1,2-b]pyridine] | – | IC50 [1]: 7.4 µM
0.29 µM | – | CC(=O)SCC(C(=O)N1CCC(=C2c3ccc(Cl)cc3CCc3cccnc32)CC1)c1ccccc1 (centres unmarked) [Example 84] | – | IC50 [1]: > 9.7 µM
2 µM | – | O=C(CN1C(=O)c2ccccc2S1(=O)=O)N1CCC(=C2c3ccc(Cl)cc3CCc3cccnc32)CC1 [Example 85] | – | IC50 [1]: > 37.4 µM
4.4 µM | > 50 | O=C(C1CCC(O)CC1)N1CCC(=C2c3ccc(Cl)cc3CCc3cccnc32)CC1 (centres unmarked) [Example 97] | > 50 | –
4.4 µM | 50 | O=C(c1ccc(Cl)nc1)N1CCC(=C2c3ccc(Cl)cc3CCc3cccnc32)CC1 [Example 98] | > 50 | –
1.4 µM | 50 | S=C(c1ccccc1)N1CCC(=C2c3ccc(Cl)cc3CCc3cccnc32)CC1 [Example 121] | > 50 | –
2.9 µM | 50 | O=C(Cc1ccccc1[N+](=O)[O-])N1CCC(=C2c3ccc(Cl)cc3CCc3cccnc32)CC1 [Example 126] | > 50 | –
3 µM | 25 | O=C(Cc1ccc(O)cc1)N1CCC(=C2c3ccc(Cl)cc3CCc3cccnc32)CC1 [Example 128] | > 50 | –
– | – | O=C(C1CCCC1)N1CCC(=C2c3ccc(Cl)cc3CCc3cccnc32)CC1 [Example 157] | – | IC50 [1]: 4.5 µM
1.09 µM | 37 | O=C(Nc1ccccc1)N1CCN(C2c3ccc(Cl)cc3CCc3cccnc32)CC1 (centres unmarked) [Example 182] | > 50 | –
3.3 µM | > 50 | CC(C)(C(=O)N1CCN(C2c3ccc(Cl)cc3CCc3cccnc32)CC1)c1ccccc1 (centres unmarked) [Example 190] | > 50 | –
4.9 µM | < 3.1 | CC(C(=O)N1CCN(C2c3ccc(Cl)cc3CCc3cccnc32)CC1)c1cccnc1 (centres unmarked) [Example 191] | 50 | –
4.8 µM | > 50 | CC(C)(C)OC(=O)NCC(=O)N1CCN(C2c3ccc(Cl)cc3CCc3cccnc32)CC1 (centres unmarked) [Example 208] | > 50 | –
7.92 µM | 25 | O=C(Cc1ccccc1)NCC(=O)N1CCN(C2c3ccc(Cl)cc3CCc3cccnc32)CC1 (centres unmarked) [Example 209] | > 50 | –
8.17 µM | 37 | O=C(Cc1cccc(O)c1)NCC(=O)N1CCN(C2c3ccc(Cl)cc3CCc3cccnc32)CC1 (centres unmarked) [Example 211] | > 50 | –
7.92 µM | 25 | O=C(Cc1ccccc1O)NCC(=O)N1CCN(C2c3ccc(Cl)cc3CCc3cccnc32)CC1 (centres unmarked) [Example 212] | 37 | –
6.75 µM | 37 | O=C(CCc1ccccc1)NCC(=O)N1CCN(C2c3ccc(Cl)cc3CCc3cccnc32)CC1 (centres unmarked) [Example 217] | 50 | –

IC50 [2, 5] | IC50 ([3]; Homo sapiens) [µM] | Structure (SMILES) | IC50 ([4]; Homo sapiens, Fibroblast) [µM] | also measured
9.92 µM | 37 | O=C(CCc1ccc(O)cc1)NCC(=O)N1CCN(C2c3ccc(Cl)cc3CCc3cccnc32)CC1 (centres unmarked) [Example 218] | 50 | –
4.38 µM | 37 | O=C(Cc1cccnc1)N1CCC(=C2c3ccc(Cl)cc3CCc3ccc[n+]([O-])c32)CC1 [Example 229] | > 50 | –
– | > 50 | O=C(Cc1ccc[n+]([O-])c1)N1CCC(C2c3ccc(Cl)cc3CCc3ccc[n+]([O-])c32)CC1 (centres unmarked) [Example 237] | > 50 | inhibition at 4 µM ([2]; at 4 μM): 18%
1.3 µM | – | O=C(Nc1cccnc1)N1CCC(=C2c3ccc(Cl)cc3CCc3c(Cl)ccnc32)CC1 [Example 261] | – | IC50 [1]: 9.1 µM
1.33 µM | – | O=C(Nc1cccnc1)N1CCC(C2c3ccc(Cl)cc3C=Cc3cccnc32)CC1 (centres unmarked) [Example 267] | – | IC50 [1]: 12.5 µM
0.91 µM and 1.38 µM | – | O=C(Nc1cccnc1)N1CCC(C2c3ccc(Cl)cc3C=Cc3c(Cl)ccnc32)CC1 (centres unmarked) [Example 274] | – | IC50 [1]: 8 µM
0.88 µM | – | CC(C)(C(=O)N1CCC(=C2c3ccc(Cl)cc3C=Cc3cccnc32)CC1)c1cccnc1 [Example 278] | – | IC50 [1]: 2.6 µM
2.4 µM | – | O=C(C(=O)N1CCC(=C2c3ccc(Cl)cc3CCc3cccnc32)CC1)c1ccc([N+](=O)[O-])cc1 [Example 295] | – | IC50 [1]: 20.8 µM
2.71 µM | > 50 | CN(C)c1ccc(CC(=O)N2CCC(=C3c4ccc(Cl)cc4CCc4cccnc43)CC2)cc1 [Example 297] | > 50 | –
– | – | CC(C)(C)c1cnc2c(c1)CCc1cc(Cl)ccc1C2=C1CCN(C(=O)Cc2ccncc2)CC1 [Example 305] | – | FPT inhibition ([2]; at 4 μM): 40% @4 μM; IC50 [3]: 25 µM; IC50 [4]: > 50 µM
0.22 µM and 0.14 µM | – | O=C(Cc1ccncc1)N1CCC(=C2c3ccc(Cl)cc3C=Cc3cccnc32)CC1 [Example 307] | – | IC50 [3]: 12.5 µM; IC50 [4]: 50 µM
3.6 µM | – | O=C(Cc1ccncc1)N1CCC(=C2c3cc(F)ccc3CCc3cccnc32)CC1 [Example 310] | – | IC50 [3]: 25 µM; IC50 [4]: > 50 µM
4.1 µM | 37 | O=C(NCc1ccccc1)N1CCC(C2c3ccc(Cl)cc3CCc3cccnc32)CC1 (centres unmarked) [Example 318] | 37 | –
6 µM | 6.25 | O=C(Cc1ccc(O)c(O)c1)N1CCC(C2c3ccc(Cl)cc3CCc3cccnc32)CC1 (centres unmarked) [Example 321] | > 50 | –
– | 12.5 | Nc1cc2c(nc1Br)C(=C1CCN(C(=O)Cc3ccncc3)CC1)c1ccc(Cl)cc1CC2 [Example 405] | > 25 | IC50 [2, 7]: 1.3 µM
– | > 25 | CC(C)(C(=O)N1CCC(=C2c3ccc(Cl)cc3CCc3cccnc32)CC1)c1cc[n+]([O-])cc1 [Example 411-E] | > 25 | IC50 [2, 7]: 1.14 µM
– | 12.5 | CC(C)(C(=O)N1CCN(C2c3ccc(Cl)cc3CCc3cccnc32)CC1)c1ccncc1 (centres unmarked) [Example 425] | > 25 | IC50 [2, 7]: 1.74 µM

Structure (SMILES) | IC50 [2, 5] | IC50 ([3]; Homo sapiens) [µM] | IC50 ([4]; Homo sapiens, Fibroblast) [µM] | also measured
O=C(Cc1ccc[n+]([O-])c1)N1CCN(C2c3ccc(Cl)cc3CCc3ccc[n+]([O-])c32)CC1 (centres unmarked) [185 (5.61)] | 3.8 µM | – | – | IC50 [1]: > 20 µM
CN(C)c1ccc(CC(=O)N2CCN(C3c4ccc(Cl)cc4CCc4cccnc43)CC2)cc1 (centres unmarked) [Example 189] | – | 37 | > 50 | IC50 [2, 6]: 2.44 µM
O=C(Cc1ccccn1)N1CCN(C2c3ccc(Cl)cc3CCc3cccnc32)CC1 (centres unmarked) [Example 196] | – | 37 | > 50 | IC50 [2, 6]: 0.36 µM; IC50 ([3]; listed as 196 (5.69)): 25 µM
O=C(Cc1ccc[n+]([O-])c1)N1CCN(C2c3ccc(Cl)cc3CCc3cccnc32)CC1 (centres unmarked) [Example 197] | – | 25 | > 50 | IC50 [2, 6]: 1.17 µM
O=C(Cc1cccnc1)N1CCN(C2c3ccc(Cl)cc3CCc3c(Cl)ccnc32)CC1 (centres unmarked) [Example 355] | – | 8 | > 25 | IC50 [2, 6]: 0.88 µM
Nc1cnc2c(c1)C=Cc1cc(Cl)ccc1C2C1CCN(C(=O)Cc2ccncc2)CC1 (centres unmarked) [Example 402-A] | – | 3.1 | > 25 | IC50 ([2]; FPT IC50, enzyme inhibition): 0.45 µM and 0.56 µM
O=C(Cc1cc[n+]([O-])cc1)N1CCN(C2c3ccc(Cl)cc3CCc3cccnc32)CC1 (centres unmarked) [Example 425-B] | – | 12.5 | > 25 | IC50 [2, 7]: 0.74 µM
O=C(Cc1cc[n+]([O-])cc1)N1CCN(C2c3ccc(Cl)cc3CCc3cc(Br)cnc32)CC1 (centres unmarked) [Example 425-H] | – | < 1.6 | > 25 | IC50 ([2]; FPT IC50, enzyme inhibition): 0.059 µM and 0.049 µM and 0.075 µM
O=C(Cc1ccc[n+]([O-])c1)N1CCN(C2c3ccc(Cl)cc3CCc3cc(Br)cnc32)CC1 (centres unmarked) [Example 425-K] | – | 6.25 | > 25 | IC50 ([2]; FPT IC50, enzyme inhibition): 0.4 µM and 0.41 µM
